Reference: patent publication US20120245229A1, “METHOD FOR TREATING NEUROPATHIC PAIN” (priority 2009, published 2012)

Columns and labels:
[1] = tested on: carrageenan (CRG)-elicited heat hyperalgesia; assay: Carrageenan (CRG)-elicited heat hyperalgesia; type: in vivo, mice
Method: (§1) Animals and pain models. Adult CD1 mice (male, 25-32 g) were used for most experiments. Knockout mice were used lacking TNFR1/II (Tnfrsf1a/1b^−/−) and TRPV1 (Trpv1^−/−) and C57BL/6 wild-type control mice, all from Jackson, for some experiments. All animal procedures performed in this study were approved by the Harvard Medical Area Standing Committee on Animals. 20 μl of diluted formalin (5%), carrageenan (CRG, 1%), or complete Freund's adjuvant (CFA) were injected into the plantar surface of a hindpaw to produce acute, persistent, or chronic inflammatory pain, respectively. Postoperative pain was also produced through hindpaw incision^36 and neuropathic pain by ligation of the spinal nerve^37.
(§2) Behavioral analysis. Mice were habituated in the testing environment for two days and performed behavioral testing in a blinded manner. Formalin-evoked spontaneous inflammatory pain was assessed by measuring duration (seconds) animals spent on licking/flinching the affected paws every 5 min for 45 min. Capsaicin-induced spontaneous pain was aslo assessed for 10 min. For testing mechanical sensitivity, mice were put in boxes on an elevated metal mesh floor and stimulated hindpaw with a series of von Frey hairs with logarithmically incrementing stiffness (0.02-2.56 grams, Stoelting), presented perpendicular to the plantar surface. It was determined the 50% paw withdrawal threshold using Dixon's up-down method^40. For testing heat sensitivity, mice were placed in plastic boxes and tested heat sensitivity using Hargreaves radiant heat apparatus (IITC Life Science Inc.). The basal paw withdrawal latency was adjusted to 9-12 seconds and set a cut-off of 20 seconds to prevent tissue damage. The percent maximal possible antinociceptive effect (% M.P.E) was calculated using the equation % M.P.E.=[(PL−BL2)/(BL1−BL2)]×100. BL1, baseline latency before inflammation; BL2, baseline latency after inflammation but before drug injection; PL, latency post drug injection.
Resolvins were also used for intraplantar injection. […]

[2] = tested on: formalin-induced inflammatory pain; assay: Formalin-induced spontaneous inflammatory pain (licking/flinching duration); type: in vivo, mice; settings: intrathecal; pertussis toxin 0.2 μg, naloxone 2 μg, ChemR23 siRNA 3 μg daily for 3 days before formalin
Method: as §1
(§3) Reagents and administration. RvE1 and RvD1 were suspended in 1% or 10% ethanol as vehicle for investigating acute (<1 h) and persistent (1-6 h) effects of resolvins on inflammatory pain. The reagents (10 μl) were delivered to the cerebral spinal fluid via intrathecal injection made by a spinal cord puncture between the L5 and L6 level with a 30G needle^38.
as §2
(§4) Intrathecal injection. To avoid systemic effects of drugs and target spinal mechanisms, drugs were delivered into cerebral spinal fluid (CSF) space around lumbosacral spinal cord via intrathecal (i.t.) administration. Spinal cord puncture was made with a 30G needle between the L5 and L6 level to deliver the reagents (10 μl) to the cerebral spinal fluid (Hylden and Wilcox, 1980)^5. […] In addition to spinal cord cells, intrathecal drug administration also affects DRG cells^6,7.
Intrathecal injection: DHA and EPA (Cayman Chemical, 10 μg, prepared in 1% ethanol), COX-2 inhibitor NS-398 (Sigma, 0.1, 1, and 10 μg, prepared in 1% ethanol in FIG. 1a-c or in 10% ethanol in FIG. 2c), morphine (Sigma, 10 to 500 ng, prepared in 1% ethanol in FIG. 1a-c), naloxone (Sigma, 2 μg, prepared in 1% ethanol), pertussis toxin (Tocris Bioscience, 0.2 μg, prepared in saline), chemerin (R & D Systems, 0.45 to 100 ng, prepared in 1% ethanol), TNF-α (R & D Systems, 20 ng, prepared in saline), and capsaicin (Sigma, 0.5 μg in 10 μl, prepared in 1% DMSO) were delivered. To examine whether pretreatment of RvE1 attenuated TNF-α-induced persistent hyperalgesia at 1, 3, and 24 h, RvE1 and TNF-α were mixed and injected at the same time (FIG. 3c). To examine whether pretreatment of RvE1 attenuates capsaicin-induced acute spontaneous pain, RvE1 and capsaicin were mixed and injected at the same time (FIG. 3f).

ChemR23 = ChemR23 western blotting after siRNA knockdown; type: in vivo, mice
Method: siRNAs were mixed with the transfection reagent polyethyleneimine (PEI, Fermentas), 10 min before injection, to increase cell membrane penetration and reduce the degradation (Tan et al., 2005; 2009)^9,10. PEI was dissolved in 5% glucose, and […] of siRNA was mixed with 0.18 μl of PEI, as shown in our previous study (Kawasaki et al., 2008)^7. In the formalin model, siRNA was administrated via intrathecal route (3 μg), delivered at 72 h, 48 h, and 24 h before formalin injection (supplementary FIG. 1a, b). In the carrageenan model, siRNA was administrated via intraplantar route (4 μg), delivered at 48 h, 24 h, and 3 h before carrageenan injection (supplementary FIG. 1c, d). The knockdown effects of ChemR23 siRNA were examined by Western blotting using a ChemR23 antibody (Santa Cruz).
Animals were transcardially perfused with PBS, and the skin, DRG, and spinal cord tissues were rapidly removed and homogenized in a lysis buffer containing a cocktail of protease inhibitors and phosphatase inhibitors. The protein concentrations were determined by BCA Protein Assay (Pierce), and 30 μg of proteins were loaded for each lane and separated on SDS-PAGE gel (4-15%, Bio-Rad). After the transfer, the blots were incubated overnight at 4° C. with polyclonal antibody against ChemR23 (goat, 1:200, Santa Cruz). For loading control, the blots were probed with tubulin antibody (mouse, 1:5000, Sigma).

[3] = tested on: complete Freund's adjuvant (CFA)-evoked heat hyperalgesia; assay: CFA-evoked heat hyperalgesia (paw withdrawal latency, Hargreaves); type: in vivo, mice; settings: intrathecal, post-CFA day 3; DHA and EPA 10 μg
Method: as §1, §3, §2, §4
The anti-hyperalgesic efficacy of RvE1 prepared in 1% and 10% ethanol was compared on post-CFA day 3.

inflammatory pain = assay: Inflammatory pain models induced by formalin or CFA (summary statements); type: in vivo, mouse
Method: as §1, §2

[4] = tested on: paw incision-induced postoperative pain; assay: Postoperative pain model induced by hindpaw incision; type: in vivo, mice; settings: intraplantar 20 ng, 10 min before paw incision
Method: as §1
Behavioral analysis. Mice were habituated in the testing environment for two days and performed behavioral testing in a blinded manner. Formalin-evoked spontaneous inflammatory pain was assessed by measuring duration (seconds) animals spent on licking/flinching the affected paws every 5 min for 45 min. Capsaicin-induced spontaneous pain was aslo assessed for 10 min. […] It was determined the 50% paw withdrawal threshold using Dixon's up-down method^40. […] The percent maximal possible antinociceptive effect (% M.P.E) was calculated using the equation % M.P.E.=[(PL−BL2)/(BL1−BL2)]×100. […]

| Molecule | reversal of RvE1-induced anti-hyperalgesic effect ([1]; intraplantar ChemR23 siRNA 4 μg at 48 h, 24 h, and 3 h before carrageenan, 4 h after CRG) | reversal of RvE1's antinociceptive action, formalin 2nd phase [2] | ChemR23 expression in the hindpaw skin (ChemR23; intraplantar siRNA 4 μg at 48 h, 24 h, and 3 h before carrageenan) | ChemR23 expression in the DRG (ChemR23; intrathecal siRNA 3 μg, daily for 3 days, before formalin injection) | CFA-evoked heat hyperalgesia [3] | CRG-evoked heat hyperalgesia ([1]; intraplantar pretreatment, 20 ng, 10 min before carrageenan) | pain-like behaviors (inflammatory pain) | paw incision-induced mechanical allodynia [4] |
| --- | --- | --- | --- | --- | --- | --- | --- | --- |
| ChemR23 siRNA: 5′-AACACUGUGUGGUUUGUCAACtt-3′, synthesized by Dharmacon (guide AACACUGUGUGGUUUGUCAACTT; chemistry not given here) | reverses RvE1-induced anti-hyperalgesic effect | reverses RvE1-induced antinociceptive effect | reduces ChemR23 expression in the hindpaw skin | reduces ChemR23 expression in the DRG |  |  |  |  |
| CC/C=C\C[C@H](O)/C=C/C=C\C=C\C=C\[C@@H](O)[C@@H](O)C/C=C\CCC(=O)O [RvD1] |  |  |  |  | Attenuation | substantially attenuated | potently inhibit | attenuates the development of paw incision-induced mechanical allodynia |
